“And” between values parts separate entries of the source, which are not always exact repeats. Identical values can stand only once. Like-named read-outs stand apart in the source and are kept apart here.
Experiments:
Type in all cases: in vivo, mice
[1] = tested on: HepG2 tumors
Experimental: Female athymic nude mice (Harlan Sprague Dawley, Madison, Wis.) were utilized for all experiments. Animals were housed in ventilated rack caging with food and water ad libitum. The mice were acclimated for at least 5 days prior to tumor implantation with a tumor cell suspension.
The tumor model used in these studies was HepG2 cell line, which was obtained from the ATCC (Manassas, Va.).
HepG2 cells were grown in MEM supplemented with 10% FBS, 1.5 g/L sodium bicarbonate, 0.1 mM non-essential amino acids, 1.0 mM sodium pyruvate, and 2 mM L-glutamine. Each animal was implanted SC on the right flank, using a 13G trochar, with 5×10^6 HepG2 cells in a 0.2 mL suspension of 50% Matrigel and 50% serum free medium, without antibiotics. Bacterial cultures were performed on aliquots of the cells prepared for implantation.
Treatments were initiated on DPI 19.
Tumor size measurements were recorded twice weekly from the treatment initiation until the termination of the study.
(§1) Mean, standard deviation and standard error of the mean were determined for tumor volume for all animal groups at all assessments. Student's t test was performed on tumor volumes at each measurement day, including at the end of the study, to determine whether there were any statistically significant differences between combination treatment groups and single monotherapy treatment groups.

[2] = tested on: NCI-H460 tumors; details: for % Inhibition: PM00104 0.9 mg/kg/day, single agents and combination, r5-r13 = day 9,13,16,21,24,27,30,38,41
Experimental: (§2) Female athymic nude mice (Harlan Sprague Dawley, Madison, Wis.) were utilized for all experiments. Animals were housed in ventilated rack caging with food and water ad libitum. The mice were acclimated for at least 5 days prior to tumor implantation.
The tumor model used in this study was NCI-H460 cell line which is a human NSCLC cell line obtained from the ATCC (Manassas, Va.). […] Cells from in vitro passage 7 were implanted SC into study mice using a 1 ml syringe with a 13G trocar: 5×10^6 cells/mouse in 0.2 ml 50% Matrigel/50% RPMI medium of NCI-H460 without serum or antibiotics. Bacterial culture was taken on cells used to implant the study.
(§3) Treatments were initiated on DPI 9.
(§4) Tumor size measurements were recorded 2-3 times/week from the treatment initiation until the termination of the study.
as §1

[3] = tested on: NCI-H460 tumors; details: G2 PM00104 0.9 mg/kg/day IV
Description: as §2
The tumor model used in this study was NCI-H460 cell line which is a human lung cell line obtained from the ATCC (Manassas, Va.). […] Cells from in vitro passage 16 were those implanted SC into study mice.
Treatments were initiated on DPI 8.
as §4, §1

[4] = tested on: CaLu-6 tumors; details: G2 PM00104 0.9 mg/kg/day IV
Description: as §2
The tumor model used in this study was CaLu-6 cell line which is a human lung cell line obtained from the ATCC (Manassas, Va.). […] Cells from in vitro passage 10 were those implanted SC into study mice.
as §3, §4, §1

[5] = day 19, PM00104 0.60, sorafenib 60 mg/kg/day
[6] = day 19, PM00104 0.90, sorafenib 60 mg/kg/day
[7] = day 22, PM00104 0.60, sorafenib 60 mg/kg/day
[8] = day 22, PM00104 0.90, sorafenib 60 mg/kg/day
[9] = day 26, PM00104 0.60, sorafenib 60 mg/kg/day
[10] = day 26, PM00104 0.90, sorafenib 60 mg/kg/day
[11] = day 30, PM00104 0.60, sorafenib 60 mg/kg/day
[12] = day 30, PM00104 0.90, sorafenib 60 mg/kg/day
[13] = day 33, PM00104 0.60, sorafenib 60 mg/kg/day
[14] = day 33, PM00104 0.90, sorafenib 60 mg/kg/day
[15] = PM00104 0.9 mg/kg/day IV and/or Bevacizumab 5 mg/kg/day IP

## COc1c(C)cc2c(c1O)[C@@H]1[C@@H]3Cc4c(OC(C)=O)c(C)c5c(c4[C@H](CNC(=O)/C=C/c4cccc(C(F)(F)F)c4)N3[C@@H](O)[C@H](C2)N1C)OCO5 [PM00104]
[1]; day 19, PM00104 0.60, sorafenib 30 mg/kg/day
  % Inhibition: 8.4%
[1]; [5]
  % Inhibition: 8.4%
  % T/C: 91.6%
[1]; day 19, PM00104 0.90, sorafenib 30 mg/kg/day
  % Inhibition: 8.5%
[1]; [6]
  % Inhibition: 8.5%
  % T/C: 91.5%
[1]; day 22, PM00104 0.60, sorafenib 30 mg/kg/day
  % Inhibition: 28.1%
[1]; [7]
  % Inhibition: 28.1%
  % T/C: 71.9%
[1]; day 22, PM00104 0.90, sorafenib 30 mg/kg/day
  % Inhibition: 40.3%
[1]; [8]
  % Inhibition: 40.3%
  % T/C: 59.7%
[1]; day 26, PM00104 0.60, sorafenib 30 mg/kg/day
  % Inhibition: 48.3%
[1]; [9]
  % Inhibition: 48.3%
  % T/C: 51.7%
[1]; day 26, PM00104 0.90, sorafenib 30 mg/kg/day
  % Inhibition: 59.5%
[1]; [10]
  % Inhibition: 59.5%
  % T/C: 40.5%
[1]; day 30, PM00104 0.60, sorafenib 30 mg/kg/day
  % Inhibition: 59.2%
[1]; [11]
  % Inhibition: 59.2%
  % T/C: 40.8%
[1]; day 30, PM00104 0.90, sorafenib 30 mg/kg/day
  % Inhibition: 76.1%
[1]; [12]
  % Inhibition: 76.1%
  % T/C: 23.9%
[1]; day 33, PM00104 0.60, sorafenib 30 mg/kg/day
  % Inhibition: 62.4%
[1]; [13]
  % Inhibition: 62.4%
  % T/C: 37.6%
[1]; day 33, PM00104 0.90, sorafenib 30 mg/kg/day
  % Inhibition: 73.0%
[1]; [14]
  % Inhibition: 73.0%
  % T/C: 27.0%
[2]; [15]
  % T/C on day 9: 96.3%
  % T/C on day 13: 97.8%
  % T/C on day 16: 75.9%
  % T/C on day 21: 73.2%
  % T/C on day 24: 66.8%
  % T/C on day 27: 43.8%
  % T/C on day 30: 45.1%
  % T/C on day 38: 125.1%
  % T/C on day 41: 132.5%
[2]; bevacizumab 5 mg/kg/day
  % Inhibition: 24.1% and 33.2%
[2]; temsirolimus 10 mg/kg/day
  % Inhibition: 24.1% and 33.2%
[2]; temsirolimus 20 mg/kg/day
  % Inhibition: 24.1% and 33.2%
[3]
  % T/C on day 8: 101.5%
  % T/C on day 10: 86.5%
  % T/C on day 13: 48.5%
  % T/C on day 16: 49.0%
  % T/C on day 20: 47.2%
  % T/C on day 23: 63.0%
  % T/C on day 28: 61.9%
  % T/C on day 31: 81.7%
[3]; day 8
  % Inhibition: −1.5%
[3]; day 10
  % Inhibition: 13.5%
[3]; day 13
  % Inhibition: 51.5%
[3]; day 16
  % Inhibition: 51.0%
[3]; day 20
  % Inhibition: 52.8%
[3]; day 23
  % Inhibition: 37.0%
[3]; day 28
  % Inhibition: 38.1%
[3]; day 31
  % Inhibition: 18.3%
[4]
  % T/C on day 9: 104.1%
  % T/C on day 13: 106.0%
  % T/C on day 16: 111.4%
  % T/C on day 20: 115.4%
  % T/C on day 27: 93.9%
  % T/C on day 30: 80.3%
  % T/C on day 34: 81.5%
  % T/C on day 42: 77.2%
[4]; day 9
  % Inhibition: −4.1%
[4]; day 13
  % Inhibition: −6.0%
[4]; day 16
  % Inhibition: −11.4%
[4]; day 20
  % Inhibition: −15.4%
[4]; day 23
  % Inhibition: −16.8%
[4]; day 27
  % Inhibition: 6.1%
[4]; day 30
  % Inhibition: 19.7%
[4]; day 34
  % Inhibition: 18.5%
[4]; day 42
  % Inhibition: 22.8%
